Holding throughout (assay): Eurofins kinase selectivity profile against 380 other human recombinant kinases (Table S2)
What all share (format): biochemical

Assay [1] has as its target T1, 380 human recombinant protein kinases (Homo sapiens, UniProt P06213).
T1 construct: purchased Eurofins (Celle Lévescault)
As to conditions: IR(h), read-out: Inhibition rate. In outline:
(§1)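 Values come from a contract kinase-profiling service that tested the compound at multiple concentrations across 380 recombinant human kinases, as an off-target check against the MK2 activity.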

For assay [2], the target named is T2, 380 human recombinant protein kinases (Homo sapiens, UniProt P19525).
T2 construct: purchased Eurofins (Celle Lévescault)
As to conditions: PKR(h), read-out: Inhibition rate. The essentials:
as §1

Assay [3] has as its target T3, 380 human recombinant protein kinases (Homo sapiens, UniProt O60674).
T3 construct: purchased Eurofins (Celle Lévescault)
As to conditions: JAK2(h), read-out: Inhibition rate. In outline: as §1

Assay [4] addresses T4, 380 human recombinant protein kinases (Homo sapiens, UniProt Q9UL54).
T4 construct: purchased Eurofins (Celle Lévescault)
T4 sequence (Q9UL54 1-1235): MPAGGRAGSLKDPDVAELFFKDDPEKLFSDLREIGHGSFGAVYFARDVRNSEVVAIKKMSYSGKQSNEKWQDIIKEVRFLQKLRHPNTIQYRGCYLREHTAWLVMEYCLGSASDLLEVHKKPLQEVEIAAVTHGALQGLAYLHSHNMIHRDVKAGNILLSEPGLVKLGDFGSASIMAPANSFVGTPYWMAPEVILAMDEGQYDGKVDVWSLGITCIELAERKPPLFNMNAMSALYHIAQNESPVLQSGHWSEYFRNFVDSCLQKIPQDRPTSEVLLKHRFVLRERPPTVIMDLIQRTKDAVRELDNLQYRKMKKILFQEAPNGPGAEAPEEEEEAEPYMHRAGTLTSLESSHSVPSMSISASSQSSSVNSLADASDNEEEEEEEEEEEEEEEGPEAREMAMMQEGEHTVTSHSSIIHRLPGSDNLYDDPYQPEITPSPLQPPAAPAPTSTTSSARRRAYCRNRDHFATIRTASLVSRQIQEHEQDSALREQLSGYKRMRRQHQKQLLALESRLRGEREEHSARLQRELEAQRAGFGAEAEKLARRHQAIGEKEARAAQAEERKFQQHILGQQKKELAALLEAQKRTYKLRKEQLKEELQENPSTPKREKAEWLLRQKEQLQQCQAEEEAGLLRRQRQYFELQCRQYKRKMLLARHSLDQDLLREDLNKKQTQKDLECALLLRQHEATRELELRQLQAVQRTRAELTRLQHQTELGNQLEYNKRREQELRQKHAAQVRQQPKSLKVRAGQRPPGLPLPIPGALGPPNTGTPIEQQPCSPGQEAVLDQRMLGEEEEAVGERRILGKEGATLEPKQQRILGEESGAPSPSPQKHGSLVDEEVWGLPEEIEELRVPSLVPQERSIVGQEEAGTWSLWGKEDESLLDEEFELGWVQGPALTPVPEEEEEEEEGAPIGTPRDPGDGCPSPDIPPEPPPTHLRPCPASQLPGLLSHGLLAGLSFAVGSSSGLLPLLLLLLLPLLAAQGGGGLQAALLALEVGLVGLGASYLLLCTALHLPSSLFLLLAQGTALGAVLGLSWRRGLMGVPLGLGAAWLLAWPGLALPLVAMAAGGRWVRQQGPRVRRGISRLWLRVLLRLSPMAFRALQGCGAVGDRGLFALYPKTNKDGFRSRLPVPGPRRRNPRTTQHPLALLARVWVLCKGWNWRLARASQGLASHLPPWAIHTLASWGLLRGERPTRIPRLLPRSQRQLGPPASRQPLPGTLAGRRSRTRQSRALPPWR
As to conditions: TAO2(h), read-out: Inhibition rate (%). The essentials: as §1

Assay [5] concerns the target T5, 380 human recombinant protein kinases (Homo sapiens, UniProt Q5TCY1).
T5 construct: purchased Eurofins (Celle Lévescault)
As to conditions: TTBK1(h), read-out: Inhibition rate (%). In outline: as §1

Assay [6] addresses T6, 380 human recombinant protein kinases (Homo sapiens, UniProt Q9Y2K2).
T6 construct: purchased Eurofins (Celle Lévescault)
As to conditions: SIK3(h), read-out: Inhibition rate (%). In outline:
as §1

Assay [7] concerns the target T7, 380 human recombinant protein kinases (Homo sapiens, UniProt P45983).
T7 construct: purchased Eurofins (Celle Lévescault)
As to conditions: JNK1α1(h), read-out: Inhibition rate. In outline:
as §1

The target in assay [8] is T8, 380 human recombinant protein kinases (Homo sapiens, UniProt Q99759).
T8 construct: purchased Eurofins (Celle Lévescault)
T8 sequence (Q99759 1-626): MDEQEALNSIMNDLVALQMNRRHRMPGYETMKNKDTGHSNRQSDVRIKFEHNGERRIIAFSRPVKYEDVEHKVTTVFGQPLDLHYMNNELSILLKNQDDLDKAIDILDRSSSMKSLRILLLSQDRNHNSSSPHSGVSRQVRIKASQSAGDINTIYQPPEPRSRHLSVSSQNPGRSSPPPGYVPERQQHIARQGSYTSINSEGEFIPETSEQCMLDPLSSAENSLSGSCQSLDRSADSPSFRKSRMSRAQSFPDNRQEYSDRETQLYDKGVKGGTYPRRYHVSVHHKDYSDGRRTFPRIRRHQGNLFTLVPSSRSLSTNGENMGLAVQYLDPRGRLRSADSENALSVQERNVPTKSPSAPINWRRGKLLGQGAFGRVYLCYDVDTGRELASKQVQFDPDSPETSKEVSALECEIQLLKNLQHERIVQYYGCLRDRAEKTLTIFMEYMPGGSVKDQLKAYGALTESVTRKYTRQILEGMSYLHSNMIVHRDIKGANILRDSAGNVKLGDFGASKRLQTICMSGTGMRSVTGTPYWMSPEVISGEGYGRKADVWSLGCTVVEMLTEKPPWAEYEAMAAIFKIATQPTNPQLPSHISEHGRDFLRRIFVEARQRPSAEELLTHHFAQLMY
As to conditions: MEKK3(h), read-out: Inhibition rate. In outline:
as §1

Each structure is given as a SMILES string.

One may read the inhibition as the drop in the measured response relative to a control, in per cent.

T1 sequence (P06213 28-1382): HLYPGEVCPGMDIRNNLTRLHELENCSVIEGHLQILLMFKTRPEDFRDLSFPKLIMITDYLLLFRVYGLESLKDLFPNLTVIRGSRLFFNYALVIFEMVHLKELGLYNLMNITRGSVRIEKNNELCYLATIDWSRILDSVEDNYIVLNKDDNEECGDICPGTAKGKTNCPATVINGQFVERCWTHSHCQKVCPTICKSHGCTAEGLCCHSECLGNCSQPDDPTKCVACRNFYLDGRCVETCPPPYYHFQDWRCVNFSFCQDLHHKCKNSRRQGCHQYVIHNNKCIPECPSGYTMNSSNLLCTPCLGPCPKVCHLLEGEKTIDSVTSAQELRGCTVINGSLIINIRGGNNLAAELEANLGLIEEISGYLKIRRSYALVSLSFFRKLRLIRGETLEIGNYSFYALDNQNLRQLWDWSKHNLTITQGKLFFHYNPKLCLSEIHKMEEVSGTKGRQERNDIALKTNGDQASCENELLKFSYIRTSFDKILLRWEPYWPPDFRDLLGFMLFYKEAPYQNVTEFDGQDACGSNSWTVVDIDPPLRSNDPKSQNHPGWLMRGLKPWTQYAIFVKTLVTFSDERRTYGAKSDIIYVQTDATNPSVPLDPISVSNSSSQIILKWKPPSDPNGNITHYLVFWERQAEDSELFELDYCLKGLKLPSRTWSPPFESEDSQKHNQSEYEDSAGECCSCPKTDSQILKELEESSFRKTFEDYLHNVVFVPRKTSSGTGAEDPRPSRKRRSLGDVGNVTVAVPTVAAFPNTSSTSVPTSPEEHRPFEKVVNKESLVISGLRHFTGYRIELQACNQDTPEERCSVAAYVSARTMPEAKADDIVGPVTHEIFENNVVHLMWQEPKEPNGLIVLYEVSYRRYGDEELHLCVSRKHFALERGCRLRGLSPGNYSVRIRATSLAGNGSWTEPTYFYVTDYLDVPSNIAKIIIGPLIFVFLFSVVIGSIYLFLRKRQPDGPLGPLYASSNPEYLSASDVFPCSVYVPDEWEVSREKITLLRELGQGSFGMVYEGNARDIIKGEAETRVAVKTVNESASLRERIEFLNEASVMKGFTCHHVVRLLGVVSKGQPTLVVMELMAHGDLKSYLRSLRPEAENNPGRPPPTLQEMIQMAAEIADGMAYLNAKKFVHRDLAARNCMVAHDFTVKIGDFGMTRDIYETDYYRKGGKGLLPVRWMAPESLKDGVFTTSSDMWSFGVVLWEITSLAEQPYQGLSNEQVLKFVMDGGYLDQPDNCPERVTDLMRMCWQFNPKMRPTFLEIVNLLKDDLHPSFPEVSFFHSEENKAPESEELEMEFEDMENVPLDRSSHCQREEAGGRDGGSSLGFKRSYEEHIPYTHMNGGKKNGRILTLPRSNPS
T3 sequence (O60674 whole entry): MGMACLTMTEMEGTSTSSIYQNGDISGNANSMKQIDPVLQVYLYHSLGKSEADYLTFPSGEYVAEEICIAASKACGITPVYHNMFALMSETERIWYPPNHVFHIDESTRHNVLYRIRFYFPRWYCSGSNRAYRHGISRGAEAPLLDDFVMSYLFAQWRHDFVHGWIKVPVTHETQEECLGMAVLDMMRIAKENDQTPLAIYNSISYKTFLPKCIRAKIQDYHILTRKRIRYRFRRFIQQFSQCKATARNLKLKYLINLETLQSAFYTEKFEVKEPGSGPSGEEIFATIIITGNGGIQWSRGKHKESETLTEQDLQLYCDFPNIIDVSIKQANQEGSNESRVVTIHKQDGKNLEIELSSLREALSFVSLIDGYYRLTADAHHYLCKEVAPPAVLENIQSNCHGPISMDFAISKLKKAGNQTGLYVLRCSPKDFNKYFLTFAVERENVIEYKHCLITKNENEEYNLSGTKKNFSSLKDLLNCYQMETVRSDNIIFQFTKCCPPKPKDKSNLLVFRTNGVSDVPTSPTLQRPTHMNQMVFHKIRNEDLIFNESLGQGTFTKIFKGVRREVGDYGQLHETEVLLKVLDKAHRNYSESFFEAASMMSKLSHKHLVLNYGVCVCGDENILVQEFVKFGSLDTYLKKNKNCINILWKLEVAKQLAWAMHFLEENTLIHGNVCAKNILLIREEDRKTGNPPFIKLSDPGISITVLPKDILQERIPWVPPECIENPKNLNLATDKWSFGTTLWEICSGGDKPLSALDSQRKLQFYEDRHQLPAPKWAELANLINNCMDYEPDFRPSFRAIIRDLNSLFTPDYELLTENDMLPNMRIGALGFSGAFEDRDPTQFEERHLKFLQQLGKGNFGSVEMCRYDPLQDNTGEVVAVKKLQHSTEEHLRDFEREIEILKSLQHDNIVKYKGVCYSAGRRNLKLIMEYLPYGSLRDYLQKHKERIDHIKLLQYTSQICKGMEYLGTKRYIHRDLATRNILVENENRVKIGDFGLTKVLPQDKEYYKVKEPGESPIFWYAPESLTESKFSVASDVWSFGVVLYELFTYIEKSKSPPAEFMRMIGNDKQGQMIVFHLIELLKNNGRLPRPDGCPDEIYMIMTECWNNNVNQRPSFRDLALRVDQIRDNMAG
T5 sequence (Q5TCY1 whole entry): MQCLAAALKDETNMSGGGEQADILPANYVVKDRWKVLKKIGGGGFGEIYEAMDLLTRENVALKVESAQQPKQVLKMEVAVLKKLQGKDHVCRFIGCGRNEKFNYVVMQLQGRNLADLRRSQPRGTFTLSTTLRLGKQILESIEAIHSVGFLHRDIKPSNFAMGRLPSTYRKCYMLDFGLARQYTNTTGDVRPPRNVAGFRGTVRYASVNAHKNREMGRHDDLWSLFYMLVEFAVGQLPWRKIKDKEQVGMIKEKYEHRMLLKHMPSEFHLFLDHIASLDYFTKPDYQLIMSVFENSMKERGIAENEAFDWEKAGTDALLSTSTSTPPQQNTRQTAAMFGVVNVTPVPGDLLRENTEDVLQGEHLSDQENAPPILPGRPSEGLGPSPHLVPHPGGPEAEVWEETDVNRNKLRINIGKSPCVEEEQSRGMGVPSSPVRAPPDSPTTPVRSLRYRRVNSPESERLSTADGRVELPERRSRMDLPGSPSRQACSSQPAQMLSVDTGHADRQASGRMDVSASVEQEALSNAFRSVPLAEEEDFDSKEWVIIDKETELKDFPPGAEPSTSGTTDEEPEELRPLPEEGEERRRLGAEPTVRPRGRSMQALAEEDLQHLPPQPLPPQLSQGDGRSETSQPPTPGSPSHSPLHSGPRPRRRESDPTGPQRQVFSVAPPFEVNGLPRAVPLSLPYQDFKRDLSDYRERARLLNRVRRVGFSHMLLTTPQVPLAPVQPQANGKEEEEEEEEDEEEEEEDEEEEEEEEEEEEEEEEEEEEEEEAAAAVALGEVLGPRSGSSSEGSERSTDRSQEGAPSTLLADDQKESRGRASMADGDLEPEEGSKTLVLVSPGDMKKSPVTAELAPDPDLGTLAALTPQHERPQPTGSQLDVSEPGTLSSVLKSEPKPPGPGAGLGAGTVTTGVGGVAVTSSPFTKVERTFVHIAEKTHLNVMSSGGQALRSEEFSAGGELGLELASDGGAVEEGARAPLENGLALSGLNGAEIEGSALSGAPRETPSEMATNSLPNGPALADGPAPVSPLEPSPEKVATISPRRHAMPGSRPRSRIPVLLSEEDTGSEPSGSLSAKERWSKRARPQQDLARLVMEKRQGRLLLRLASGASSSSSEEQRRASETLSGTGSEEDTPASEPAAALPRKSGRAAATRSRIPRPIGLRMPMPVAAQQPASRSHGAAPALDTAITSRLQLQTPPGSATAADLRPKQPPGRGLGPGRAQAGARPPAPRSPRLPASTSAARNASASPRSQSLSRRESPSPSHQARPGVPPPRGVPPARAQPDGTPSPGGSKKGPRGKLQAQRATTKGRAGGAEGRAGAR
T7 sequence (P45983 whole entry): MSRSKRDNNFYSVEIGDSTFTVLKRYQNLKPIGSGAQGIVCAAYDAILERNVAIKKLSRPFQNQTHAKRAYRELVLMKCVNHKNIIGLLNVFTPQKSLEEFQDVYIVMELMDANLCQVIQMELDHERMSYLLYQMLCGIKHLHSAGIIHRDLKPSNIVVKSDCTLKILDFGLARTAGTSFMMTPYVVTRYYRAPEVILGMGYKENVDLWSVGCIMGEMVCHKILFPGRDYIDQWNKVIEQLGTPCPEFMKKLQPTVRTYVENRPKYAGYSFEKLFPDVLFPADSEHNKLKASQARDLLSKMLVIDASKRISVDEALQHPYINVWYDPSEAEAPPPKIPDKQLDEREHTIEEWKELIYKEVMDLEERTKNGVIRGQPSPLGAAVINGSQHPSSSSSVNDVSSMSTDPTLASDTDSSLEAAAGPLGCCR
T2 sequence (P19525 whole entry): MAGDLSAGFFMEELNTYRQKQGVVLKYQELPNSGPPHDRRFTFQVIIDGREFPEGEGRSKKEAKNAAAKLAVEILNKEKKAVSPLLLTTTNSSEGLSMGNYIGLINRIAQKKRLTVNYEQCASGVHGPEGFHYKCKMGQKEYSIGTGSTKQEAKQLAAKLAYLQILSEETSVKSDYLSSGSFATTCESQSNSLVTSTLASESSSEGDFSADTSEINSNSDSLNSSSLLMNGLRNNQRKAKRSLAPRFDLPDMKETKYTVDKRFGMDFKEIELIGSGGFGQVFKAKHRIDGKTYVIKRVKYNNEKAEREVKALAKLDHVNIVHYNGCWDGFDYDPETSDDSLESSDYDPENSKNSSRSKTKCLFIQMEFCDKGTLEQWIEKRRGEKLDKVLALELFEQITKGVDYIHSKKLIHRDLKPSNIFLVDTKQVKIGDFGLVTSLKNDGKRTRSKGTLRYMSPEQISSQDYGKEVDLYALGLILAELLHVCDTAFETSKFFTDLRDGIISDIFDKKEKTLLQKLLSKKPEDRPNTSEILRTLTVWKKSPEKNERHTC

On to `C=CC(=O)Nc1cc(-c2cc(-c3cc4c([nH]3)CCNC4=O)ccn2)ccc1OC(F)(F)F` [compound 11], for which the inhibition at 0.01 µM in assay [1] (10 nM) is -9%; in assay [2] (10 nM), 3%; in assay [3] (10 nM) it was -6%; in assay [4] (10 nM) it was -7%; in assay [5] (10 nM), -2%; in assay [6] (10 nM), 6%. The inhibition at 0.01 µM in assay [7] (10 nM) was 2%; in assay [8] (10 nM), -5%. Besides, the inhibition at 0.1 µM in assay [1] (100 nM) was -4%; in assay [2] (100 nM), 3%; in assay [3] (100 nM), -10%; in assay [4] (100 nM), 1%; in assay [5] (100 nM) it was -5%; in assay [6] (100 nM) it was 1%. Also, the inhibition at 0.1 µM in assay [7] (100 nM) worked out at 4%; in assay [8] (100 nM), 11%. Further, the inhibition at 1 µM in assay [1] (1000 nM) is -10%; in assay [2] (1000 nM), 9%; in assay [3] (1000 nM), -8%; in assay [4] (1000 nM) it was 0%; in assay [5] (1000 nM), 3%; in assay [6] (1000 nM), 12%. Also, the inhibition at 1 µM came out at 21% in assay [7] (1000 nM) and 12% in assay [8] (1000 nM).

The values above are taken from publication PMC11233931, “Remodeling tumor‐associated macrophage for anti‐cancer effects by rational design of irreversible inhibition of mitogen‐activated protein kinase‐activated protein kinase 2” (MedComm, 2024).
